Measured values taken from US11920165B2, “Cultivation of human noroviruses” (Baylor College of Medicine, priority 2015, dated 2024).
Like-named read-outs stand apart in the source and are kept apart here.

Experiments:
[1] = tested on: TCH04-577 GII.3 HuNoV; experiment: microbe, parasite or virus in culture; settings: Norovirus, in Homo sapiens, 72 h, read-out: Fold increase in viral genome copies compared to no bile (0-72 hpi)
Procedure: (§2) At 72 hours post infection, the cells and media were harvested and viral RNA was quantified by qRT-PCR. Each bile acid was added at a concentration of 0.5 mM.

[2] = tested on: TCH04-577 GII.3 HuNoV; settings: J2 enteroids
Procedure: as §2

[3] = tested on: TCH04-577 GII.3 HuNoV; experiment: GII.3 replication in J2 jHIE monolayers with ceramide and GCDCA; type: cell-based, human norovirus; settings: ceramide alone; 24 hpi
Procedure: FIG. 32. At least one lipid, ceramide, enhances GII.3 HuNoV replication alone or in combination with the bile acid GCDCA.J2 jHIE monolayers (p.12) were inoculated with 4.3×105 genome equivalents of TCH04-577 for 1 hr, and after washing twice with CMGF(−) media to remove unbound virus, culture continued in differentiation medium for 24 hrs. The amount of infectious virus was quantified after the washing at 1 hpi (black bars) and at 24 hpi (gray bars). Additives were added to the medium during and post inoculation.
(§1) FIG. 33. Ceramide alone, or in combination with the bile acid GCDCA, enhances GII.3 but not GII.4 HuNoV replication. J2 jHIE monolayers (p.23) were inoculated with 4.3×105 or 9×105 genome equivalents of TCH04-577 or TCH12-580, respectively, for 1 hr and, and after washing twice with CMGF(−) media to remove unbound virus, culture continued in differentiation medium for 72 hrs. The amount of infectious virus was quantified after the washing at 1 hpi (black bars) and 72 hpi (gray bars). Additives (500 μM GCDCA or 500 μM GCDCA+50 μM C2-ceramide) were added to the medium during and post inoculation. Error bars denote standard deviation. p<0.01 comparing genome equivalents at 72 hpi between GCDCA and ceramide+GCDCA.

[4] = tested on: GII.4 HuNoV; experiment: GII.4 HuNoV replication in jejunal HIE monolayers with bile, bile fractions or additives (RT-qPCR); type: cell-based, human norovirus; settings: GCDCA bile acid
Procedure: FIGS. 26A-26D. Bile is not required but enhances GII.4 HuNoV replication. […] The monolayers were inoculated with 5.5×10^5 genome equivalents of (FIG. 26A) GII.4/2006b-3 or, (FIG. 26B) GII.4/2009, or (FIGS. 26C and 26D) GII.4/2012-1 in the absence or presence of the indicated bile for 1 hour at 37° C.
as §1
One can analyze these samples by mass spectroscopy to determine the bile acid, lipid, fatty acid and/or cholesterol content. Bile was also fractionated based on filtration through different molecular cut-off filters. […]

[5] = tested on: porcine enteric calicivirus; settings: Flynn and Saif, 1988; Chang et al., 2004; cited from earlier work
[6] = tested on: TCH04-577 GII.3 HuNoV; experiment: GII.3 replication in jejunal enteroids with acid sphingomyelinase inhibitors (RT-qPCR); type: cell-based, human norovirus; settings: inhibitor present 1 hr before and during 24 hrs
Procedure: FIG. 34. Acid sphingomyelinase (ASM) inhibitors suppress GII.3 HuNoV replication. Jejunal enteroids were pretreated with inhibitors for 1 hr and inoculated with TCH04-577 for 1 hr, washed twice with CMGF(−) and cultured for 24 hrs in the presence of the inhibitors. RNA was extracted from cells and medium at 1 and 24 hpi and genome equivalents were analyzed by RT-qPCR.
Acid sphingomyelinase (ASM) that converts sphingomyelin into ceramide is involved in HuNoV infectivity, in at least certain embodiments.

[7] = tested on: TCH11-64 GII.4 HuNoV; experiment: GII.4 infection of jejunal enteroids after cholesterol extraction or trypsin treatment (VP1-positive cells); type: cell-based, human norovirus; settings: 24 hpi
Procedure: FIG. 35. Cholesterol extraction using methyl-β-cyclodextrin or treatment of cells with trypsin reduces HuNoV infection. Jejunal enteroids were untreated or treated for 45 min with methyl-β-cyclodextrin (MβCD) or 15 min with trypsin. Trypsin was inhibited with aprotinin and then the monolayer was washed prior to infection. MβCD was present during and after infection. Enteroids were infected with 3×10^6 genome equivalents of TCH11-64 GII.4 HuNoV. Enteroid monolayers were fixed at 24 hpi, VP1 detected by immunofluorescence and the number of VP1-positive cells counted per well.
In specific embodiments of the disclosure, HuNoV use a proteinaceous receptor in lipid rafts for infection. Lipid rafts are specialized domains of the cell membrane and are central for the spatial organization of receptors and signaling molecules. […] Identification of the proteinaceous molecule(s) that function as the receptor for HuNoV replication will allow production of new, simple cell systems that express this receptor and that will support HuNoV replication.

[8] = tested on: GII.4/2012-1 HuNoV; experiment: GII.4/2012-1 replication and CPE in jejunal HIEs with polymyxin B-treated stool filtrate; type: cell-based, human norovirus; settings: inoculation with polymyxin B-treated samples
Procedure: FIGS. 21A-21C. […] (FIG. 21A) GII.4/2012-1 stool filtrates were not treated (−) or treated (+) with 100 μg/m polymyxin B for 24 hours. Then, 9×10^5 genome equivalents of the filtrates were inoculated onto each jejunal HIE monolayer for 1 hour. The monolayers were washed twice with CMGF(−) medium and cultured in differentiation medium. […] Error bars denote standard deviation. (FIG. 21B) Gamma irradiated or non-irradiated GII.4/2012-1 stool filtrates were either not treated (−) or treated (+) with polymyxin B for 24 hours. Jejunal HIE monolayers were inoculated with […] for 1 hour as described above. […]
We next evaluated the growth characteristics of HuNoV infection by assessing cytopathic effect (CPE), antigen detection, and the kinetics of infection. […] Two particle sizes were detected (FIG. 15D), with particles of the expected size (31.6+/−3.3 nm) and some smaller particles (FIG. 15D inset, 18.5+/−3.7 nm). […] By Western blot analysis, nonstructural polyprotein synthesis and processing (as evidenced by the detection of several VPg-containing polyprotein processing intermediates) and capsid protein (VP1) production were first detected at 12 hpi in infected cells but not at 1 or 6 hpi or in mock-infected cells (FIG. 15E). Consistent with the production of virus particles (FIG. 15D), VP1 was detected in the culture supernatant by 24 hpi (FIG. 15E). […]

[9] = tested on: GI.1, GII.3, GII.17 HuNoVs; experiment: Replication of other HuNoV strains in jejunal HIE monolayers with components of the intestinal milieu; settings: GI.1, GII.3, GII.17 in jejunal HIE monolayers
Procedure: The monolayers were washed three times with CMGF(−) medium and cultured for the indicated days in differentiation medium in the absence (0%) or presence of the indicated concentrations of bile. At 1 hour and the indicated time post-inoculation, the cells and medium were harvested, RNA extracted and viral genome equivalents quantified by RT-qPCR. Data represent the mean of three wells for each treatment and time point. Error bars denote standard deviation. *, P<0.05 comparing genome equivalents from 1 hpi to the indicated time points.
We next tested whether monolayer cultures of jejunal HIEs could support replication of other HuNoV strains (GI.1, GII.3, GII.17). […] Consequently, several components of the intestinal milieu were assessed for their ability to promote replication of these HuNoVs in HIE monolayers.

C[C@H](CCC(=O)O)[C@H]1CC[C@H]2[C@@H]3[C@H](O)C[C@@H]4C[C@H](O)CC[C@]4(C)[C@H]3C[C@H](O)[C@]12C [CA, cholic acid]
fold induction at 500 µM [1]: 49 to 63

C[C@H](CCC(=O)O)[C@H]1CC[C@H]2[C@@H]3[C@H](O)C[C@@H]4C[C@H](O)CC[C@]4(C)[C@H]3CC[C@]12C [CDCA, chenodeoxycholic acid]
Fold increase in viral genome copies compared to no bile (0-72 hpi) ([2]; bile acid 100 uM): no increase

CCCCCCCCCCCCC/C=C/[C@@H](O)[C@H](CO)NC(C)=O [Ceramide, C2-ceramide]
GII.3 replication [3]: enhances

C[C@H](CCC(=O)NCC(=O)O)[C@H]1CC[C@H]2[C@@H]3[C@H](O)C[C@@H]4C[C@H](O)CC[C@]4(C)[C@H]3C[C@H](O)[C@]12C [GCA, Glycocholic acid]
fold induction at 500 µM [1]: 48

CC(CCC(=O)NCC(=O)O)C1CCC2C3C(O)CC4CC(O)CCC4(C)C3CCC12C (stereo not shown) [GCDCA, Glycochenodeoxycholic acid]
GII.4 replication [4]: can enhance
fold induction at 500 µM [1]: 71 to 106

CC(CCC(=O)NCC(=O)O)C1CCC2C3CCC4CC(O)CCC4(C)C3CC(O)C12C (stereo not shown) [GDCA, glycodeoxycholic acid]
fold induction at 500 µM [1]: 160

C[C@H](CCC(=O)NCCS(=O)(=O)O)[C@H]1CC[C@H]2[C@@H]3[C@H](O)C[C@@H]4C[C@H](O)CC[C@]4(C)[C@H]3C[C@H](O)[C@]12C [TCA, Taurocholic acid]
fold induction at 500 µM [1]: 65

C[C@H](CCC(=O)NCCS(=O)(=O)O)[C@H]1CC[C@H]2[C@@H]3[C@H](O)C[C@@H]4C[C@H](O)CC[C@]4(C)[C@H]3CC[C@]12C [TCDCA, Taurochenodeoxycholic acid]
Fold increase in viral genome copies compared to no bile (0-72 hpi) ([2]; bile acid 500 uM): 48-103 fold

C[C@H](CCC(=O)NCCS(=O)(=O)O)[C@H]1CC[C@H]2[C@@H]3CC[C@@H]4C[C@H](O)CC[C@]4(C)[C@H]3C[C@H](O)[C@]12C [TDCA, Taurodeoxycholic acid]
fold induction at 500 µM [1]: 95

C[C@H](CCC(=O)NCCS(=O)(=O)O)[C@H]1CC[C@H]2[C@@H]3CC[C@@H]4C[C@H](O)CC[C@]4(C)[C@H]3CC[C@]12C [TLCA, taurolithocholic acid]
fold induction at 500 µM [1]: 268

C[C@H](CCC(=O)NCCS(=O)(=O)O)[C@H]1CC[C@H]2[C@@H]3[C@@H](O)C[C@@H]4C[C@H](O)CC[C@]4(C)[C@H]3CC[C@]12C [TUDCA, Tauroursodeoxycholic acid]
replication of porcine enteric calicivirus [5]: did not enhance
fold induction at 500 µM [1]: 27

C[C@H](CCC(=O)O)[C@H]1CC[C@H]2[C@@H]3[C@@H](O)C[C@@H]4C[C@H](O)CC[C@]4(C)[C@H]3CC[C@]12C [UDCA, ursodeoxycholic acid]
Fold increase in viral genome copies compared to no bile (0-72 hpi) ([2]; bile acid 500 uM): no increase

CN(C)CCC=C1c2ccccc2CCc2ccccc21 [amitriptyline]
GII.3 replication [6]: significantly reduced
dose dependence of the effect on GII.3 replication [6]: dose-dependent decrease

CN(C)CCCN1c2ccccc2Sc2ccc(Cl)cc21 [chlorpromazine]
GII.3 replication [6]: significantly reduced
dose dependence of the effect on GII.3 replication [6]: dose-dependent decrease

methyl-β-cyclodextrin
GII.4 infection (VP1-positive cells per well) [7]: significantly reduced

polymyxin B
CPE [8]: not reduced

B1: trypsin: protease that cleaves proteins (protein, UniProt P00760 24-246, looked up)
Serine protease 1: IVGGYTCGANTVPYQVSLNSGYHFCGGSLINSQWVVSAAHCYKSGIQVRLGEDNINVVEGNEQFISASKSIVHPSYNSNTLNNDIMLIKLKSAASLNSRVASISLPTSCASAGTQCLISGWGNTKSSGTSYPDVLKCLKAPILSDSSCKSAYPGQITSNMFCAGYLEGGKDSCQGDSGGPVVCSGKLQGIVSWGSGCAQKNKPGVYTKVCNYVSWIKQTIASN
GII.4 infection (VP1-positive cells per well) [7]: reduced
HuNoV replication [9]: failed to enhance
